How the values were obtained:
Plasmodium falciparum [1] = assay: NOVARTIS: Inhibition of Plasmodium falciparum 3D7 (drug-susceptible) proliferation in erythrocyte-based infection assay; format: functional, organism-based; conditions: Plasmodium falciparum, 3D7
Plasmodium falciparum [2] = assay: NOVARTIS: Inhibition of Plasmodium falciparum W2 (drug-resistant) proliferation in erythrocyte-based infection assay; format: functional, organism-based; conditions: Plasmodium falciparum, W2; read-out: EC50
[3] = NOVARTIS: Cytotoxicity against human hepatocellular carcinoma cell line (Huh7); format: toxicity, cell-based, Huh-7; conditions: Huh7 cells (hepatocellular carcinoma cell line)

Structure (SMILES)	EC50 (Plasmodium falciparum [1])	EC50 (Plasmodium falciparum [2])	CC50 [3]
CCN1/C(=C/c2sc3ccc(I)cc3[n+]2CC)C=Cc2ccccc21	0.55 µM	0.364 µM	> 10 µM
CN(Cc1ccccc1)C(=O)CCNS(=O)(=O)c1cc(Br)cnc1N	0.614 µM	0.355 µM	> 10 µM
N=C1NC(=O)/C(=C/C=C/c2ccc([N+](=O)[O-])o2)S1	1.08 µM	0.592 µM	17.1 µM
COCCCNC(=O)C=Cc1ccc(C(C)C)cc1	5.94 µM	3.58 µM	> 100 µM
CCOc1ccc(CN2CCN(CC(O)COc3ccc(OCC(O)CN4CCN(Cc5ccc(OCC)cc5)CC4)cc3)CC2)cc1 (stereo not drawn)	1.37 µM	2.68 µM	73.7 µM
CCN(CC)CCCC(C)Nc1ccnc2ccc(-c3ccccc3)cc12 (stereo not drawn)	0.264 µM	0.359 µM	> 10 µM
Cc1cc(Nc2cccc(C(F)(F)F)c2)nc(NCc2ccccc2)n1	0.178 µM	0.553 µM	15.6 µM
CCCCCc1ccc(C(=O)NCCCCNc2ccnc3cc(Cl)ccc23)cc1	0.386 µM	0.353 µM	> 10 µM
CCCn1c(=N)c(C(=O)NC(C)c2ccccc2)cc2c(=O)n3cccc(C)c3nc21 (stereo not drawn)	1.65 µM	3.53 µM	> 100 µM
COc1cc(OC)cc(C(=O)N(CCCC(C)Nc2cc(OC)cc3cccnc23)Cc2ccc(Cl)cc2)c1 (stereo not drawn)	> 0.439 µM	0.348 µM	9.86 µM
Cc1cc(-c2cnc(C)nc2C2CCN(C(=O)c3ccc4ncccc4c3)CC2)on1	> 0.917 µM	0.42 µM	> 11.6 µM
CN(CCCNc1ccnc2cc(Cl)ccc12)S(=O)(=O)c1ccc2ccccc2c1	0.282 µM	0.201 µM	> 5.54 µM
O=C(CSc1ccc2nnc(-c3cccs3)n2n1)Nc1ccccc1	1.4 µM	> 3.47 µM	> 100 µM
CCCCCCCCCC(=O)N(C)CCCNc1ccnc2cc(Cl)ccc12	0.126 µM	0.206 µM	5.71 µM
CCCCN(C)C(=O)CSc1nc(NCc2ccccc2)c2ccccc2n1	> 1.65 µM	0.361 µM	> 10 µM
Cn1nc(C(=O)Nc2ccc(F)c(Cl)c2)c2c1-c1ccccc1S(=O)(=O)C2	> 12.5 µM	3.61 µM	> 100 µM
CN(C)CCNc1ncc(C(=O)NCc2ccccc2)c(NCCc2ccccc2)n1	0.475 µM	0.361 µM	> 10 µM
Cc1cc(Nc2ccc(C(=O)n3ccnc3)cc2)n2ncnc2n1	> 1.25 µM	> 0.347 µM	> 10 µM
O[C@@H]1[C@H]2c3cc4c(cc3CN3CCC(=C[C@@H]1O)[C@H]23)OCO4	0.0465 µM	0.361 µM	> 10 µM
O=C(NCC1(c2ccccc2)CCCC1)C(=O)Nc1nncs1	> 0.806 µM	> 0.36 µM	> 10 µM
COC(=O)c1c(S(=O)(=O)NCc2cccc(Cl)c2)sc2c1CCN(C(=O)C1CCCO1)C2 (stereo not drawn)	> 0.608 µM	> 0.36 µM	> 10 µM
CCC[P+](CCC)(CCC)CC1OCc2ccccc2CO1	1.8 µM	3.6 µM	> 100 µM
COc1ccc(C2CC(c3c(-c4ccccc4)c4cc(Cl)ccc4[nH]c3=O)=NO2)cc1 (stereo not drawn)	0.624 µM	> 0.359 µM	> 10 µM
O=C(Nc1ccc(SC(F)(F)F)cc1)Nc1cccnc1N1CCC(C(F)(F)F)CC1	1.77 µM	1.42 µM	39.7 µM

Structure (SMILES)	EC50 (Plasmodium falciparum [1])	EC50 (Plasmodium falciparum [2])	CC50 [3]
COc1ccc(CNc2ncnc3c2[nH]c2cc(OC)ccc23)cc1	0.958 µM	0.856 µM	24.1 µM
COc1ccc(NC(=O)CCn2c(=S)oc3ccccc32)c([N+](=O)[O-])c1	> 1.25 µM	> 0.346 µM	> 10 µM
OC(CCNC1CCCCC1)COc1cccc2ccccc12 (stereo not drawn)	0.789 µM	0.366 µM	> 10 µM
CCC(C)NC(=O)c1c[nH]c2ccc(S(=O)(=O)N(C)c3cc(C)ccc3C)cc2c1=O (stereo not drawn)	5.22 µM	2.17 µM	59.3 µM
CC1CCCN(C(=O)C2CCN(Cc3ccccn3)CC2)C1 (stereo not drawn)	> 9.14 µM	3.58 µM	> 100 µM
Cc1cc(C)cc(C(=O)Nc2c3c(nn2-c2cccc(C)c2C)CS(=O)(=O)C3)c1	0.329 µM	0.358 µM	> 10 µM
O=C(/C=C/c1ccccn1)NCC1Cc2cc(-c3cnccn3)ccc2O1 (stereo not drawn)	> 1.25 µM	> 0.356 µM	> 10 µM
CC(C)N(CC(=O)Nc1cc(C(C)(C)C)nn1-c1ccc(Cl)c(Cl)c1)C(=O)c1ccc(Cl)c(Cl)c1	1.01 µM	0.356 µM	> 10 µM
COc1ccc(CN2CSC3=C(C#N)C(c4cccc(OC)c4)CC(=O)N3C2)cc1 (stereo not drawn)	3.7 µM	3.55 µM	> 100 µM
CCCCCCCCNC(=O)C1CC1c1ccccc1 (stereo not drawn)	> 10.5 µM	3.49 µM	> 100 µM
CCC(Oc1ccc(C(C)(C)CC)cc1C(C)(C)CC)C(=O)Nc1ccc(Cl)c([N+](=O)[O-])c1 (stereo not drawn)	0.275 µM	0.349 µM	> 10 µM
COc1cc(C(=O)NC(c2ccccc2Cl)c2cc(Cl)c3cccnc3c2O)cc(OC)c1OC (stereo not drawn)	6.15 µM	3.47 µM	> 100 µM
Cc1cc(Nc2cccc(Cl)c2)nc(NCc2ccccc2)n1	0.051 µM	0.607 µM	17.1 µM
c1ccc2nc3c(nnc4ccccc43)nc2c1	1.1 µM	0.996 µM	28.5 µM
O=C(Nc1ccc(Oc2ccccc2)cc1)NC(CN1CCCC1)c1ccccc1 (stereo not drawn)	0.355 µM	0.476 µM	13.6 µM
O=C(Nc1ccc(-c2noc(CCc3ccccc3)n2)cc1)c1cccs1	0.903 µM	0.554 µM	15.7 µM
COc1cccc(CNc2ncnc3sc(C(=O)NCC4COCCO4)c(C)c23)c1OC (stereo not drawn)	> 12.5 µM	3.5 µM	> 100 µM
COc1ccc(C(=O)C(C#N)=CNC2CCN(Cc3ccccc3)CC2)cc1	0.177 µM	0.875 µM	24.8 µM
Cn1c(=O)n(C)c2cc(NC(=O)CCl)ccc21	1.47 µM	0.444 µM	12.2 µM
CCOC(=O)c1sc2ncnc(NCc3ccc(F)cc3)c2c1C	> 12.5 µM	> 3.63 µM	> 100 µM
O=C1CN(C(=O)c2cc([N+](=O)[O-])c(N3CCCCC3)c([N+](=O)[O-])c2N2CCCCC2)c2ccccc2N1	2.19 µM	1.83 µM	50.4 µM
CN(CCCNc1ccnc2cc(Cl)ccc12)C(=O)C1C[C@H]1c1ccccc1 (stereo partly drawn)	0.0761 µM	0.411 µM	> 11.6 µM
Clc1ccccc1C[n+]1cc(-c2ccccc2)n2c1CCC2	2.33 µM	3.47 µM	> 100 µM
O=C(Oc1ccccc1-c1nc2ccccn2c1NC1CCCCC1)c1ccc([N+](=O)[O-])cc1Cl	> 1.25 µM	0.352 µM	> 10 µM

Structure (SMILES)	EC50 (Plasmodium falciparum [1])	EC50 (Plasmodium falciparum [2])	CC50 [3]
COc1cccc(C(=O)N(C)CCCNc2ccnc3cc(Cl)ccc23)c1	0.39 µM	0.208 µM	5.93 µM
Clc1ccc(-c2cn3c([n+]2-c2ccccc2)CCC3)cc1	0.257 µM	3.51 µM	> 100 µM
Cc1ccc(C2CC(C(F)(F)F)n3ncc(C(=O)Nc4ccc(Cl)cc4)c3N2)cc1 (stereo not drawn)	2.87 µM	3.44 µM	95 µM
CCCCCCN(C(=O)c1ccc(C(C)(C)C)cc1)C(CC)c1nc2ccccc2c(=O)n1-c1ccccc1OC (stereo not drawn)	0.356 µM	0.348 µM	> 10 µM
Cc1cc(C)cc(NC(=O)CCCn2c3ccccc3c(=O)c3cc(C)ccc32)c1	4.28 µM	3.61 µM	> 100 µM
CC(=O)Nc1nc(-c2ccc(F)cc2)cs1	> 12.5 µM	3.52 µM	> 100 µM
COCC(=O)N(C)CCCNc1ccnc2cc(Cl)ccc12	0.156 µM	0.346 µM	> 10 µM
CC(C)CNC(=O)c1cc(NC(=O)c2cccs2)ccc1N1CCc2ccccc2C1	0.349 µM	0.0327 µM	0.893 µM
CCCC[n+]1c(-c2ccccc2)cc(-c2ccccc2)cc1-c1ccccc1	0.824 µM	0.467 µM	12.9 µM
CC(=O)Nc1ccccc1OC(F)(F)F	> 0.349 µM	0.468 µM	> 13.2 µM
Cc1cc(Nc2cccc(C(F)(F)F)c2)nc2ccc(NC(=O)c3cncc(Br)c3)cc12	2.45 µM	3 µM	> 84.4 µM
O=C1CCC2C3C=CC(C3)C12 (stereo not drawn)	1.78 µM	0.447 µM	> 12.4 µM
Cc1cc(Nc2ccc(I)cc2)n2ncnc2n1	1.56 µM	3.59 µM	> 100 µM
C[n+]1c2n(c3ccccc31)N=C(c1ccccc1)C[Se]2	0.471 µM	0.832 µM	23.6 µM
CCC(c1nc2ccccc2c(=O)n1-c1ccccc1OC)N(CCc1ccccc1)C(=O)Nc1ccccc1OC (stereo not drawn)	1.03 µM	0.366 µM	> 10 µM
CC1(C)N=C(N)N=C(N)N1c1ccc(F)cc1	0.0218 µM	1.86 µM	51 µM
O=c1c(NCc2ccco2)nc2cc(Cl)ccc2n1CCNc1ncc(C(F)(F)F)cc1Cl	0.81 µM	2.33 µM	63.8 µM
COC(=O)c1sc(-c2ccccc2)cc1NC(=O)c1ccc(S(=O)(=O)N2CCCCCC2)cc1	> 1.25 µM	> 0.506 µM	> 14.1 µM
Brc1ccc(Nc2nc(NCC3CCCO3)c3ccccc3n2)cc1 (stereo not drawn)	0.468 µM	0.349 µM	9.78 µM
CCC(CO)Nc1nccnc1-c1ccccc1Oc1ccccc1 (stereo not drawn)	4.54 µM	3.56 µM	> 100 µM
CN1c2ccccc2N(C)C1c1ccco1	0.288 µM	0.356 µM	> 10 µM
CCC(C)NC(=O)CN(c1cc(OC)ccc1OC)S(C)(=O)=O (stereo not drawn)	0.438 µM	0.349 µM	> 10 µM
O=C(Nc1ccc(NC(=O)c2ccco2)cc1Cl)c1ccccc1	> 1.65 µM	> 0.348 µM	> 10 µM
